Values quoted from earlier work, collected in patent US10548861B2 (Academia Sinica, priority 2015, dated 2020).

Tests used:
Details in all cases: TK, AEW, SOR, TOPO, publically accessible data (Broad, Sanger), read-out: cytotoxicity IC50; cited from earlier work
Granta-519 = test system: Granta-519
Mino = test system: Mino
Ly10 = test system: Ly10

Measured: IC50

CNC(=O)c1cc(Oc2ccc(NC(=O)Nc3ccc(Cl)c(C(F)(F)F)c3)cc2)ccn1 [SOR]
28 µM: all assays above
